Legend:
[1] = biological target: T1, native mitochondrial carnitine/acylcarnitine carrier (CAC) (Rattus norvegicus, UniProt P97521); assay: [3H]carnitine/carnitine antiport in proteoliposomes reconstituted with native CAC from rat liver mitochondria; assay type: biochemical; conditions: 10 min incubation, 0.1 mM [3H]carnitine, pH 7.0, read-out: IC50 for itaconate inhibition of [3H]carnitine/carnitine antiport
T1 construct: from tissue; host or cells: rat liver mitochondria
T1 sequence (P97521 1-301): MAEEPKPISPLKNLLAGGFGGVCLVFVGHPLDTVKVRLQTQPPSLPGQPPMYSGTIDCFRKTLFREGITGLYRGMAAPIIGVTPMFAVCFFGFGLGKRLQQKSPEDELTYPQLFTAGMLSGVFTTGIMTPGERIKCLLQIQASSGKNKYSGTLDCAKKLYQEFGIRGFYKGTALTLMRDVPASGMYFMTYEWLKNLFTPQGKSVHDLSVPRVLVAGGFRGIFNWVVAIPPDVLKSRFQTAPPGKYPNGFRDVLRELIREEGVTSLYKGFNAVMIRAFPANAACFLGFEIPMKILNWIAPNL
From the text: As previously described, recombinant CAC (WT and mutants) and ORC1 proteins were used for proteoliposome formation. For experiments with native CAC, ORC1, or ANT proteins, rat liver mitochondria, or HeLa cell mitochondria, the latter for the CAC alone, were first purified using the standard procedure of cell disruption and differential centrifugation. Then proteins were extracted using 3% Triton X-100 and reconstituted as described for the recombinant proteins. The concentration of intraliposomal carnitine and ornithine was 15 mM and 30 mM, respectively, in all samples.
To test the transport activity of the CAC, 550 μL of proteoliposomes was passed through a Sephadex G-75 column to remove the external substrate. Six hundred μL of the turbid eluate was collected, divided into samples of 100 μL each, and used for transport measurement by the inhibitor-stop method. Transport was started by adding 0.1 mM [^3H]carnitine ([^3H]ornitine or [^3H]ATP) to proteoliposome samples and stopped with 1.5 mM NEM (N-ethylmaleimide) at the indicated time interval. […] Transport rates were measured in 10 min, i.e., within the initial linear range of the time course, at 25 °C. After terminating the transport reaction, the external substrate was removed by chromatography on the Sephadex G-75 column, and the intraliposomal radioactivity was measured. […]

recombinant ORC (hORC1) = biological target: T2, recombinant ORC (hORC1) (Homo sapiens, UniProt Q9Y619); assay: [3H]ornithine transport in proteoliposomes reconstituted with recombinant ORC; assay type: biochemical; conditions: read-out: IC50 for itaconate inhibition
T2 construct: encodes a full-length hORC1 protein with a His6 tag before the termination codon; His6 (C); made in house; host or cells: E. coli C0214
T2 sequence (Q9Y619 1-301): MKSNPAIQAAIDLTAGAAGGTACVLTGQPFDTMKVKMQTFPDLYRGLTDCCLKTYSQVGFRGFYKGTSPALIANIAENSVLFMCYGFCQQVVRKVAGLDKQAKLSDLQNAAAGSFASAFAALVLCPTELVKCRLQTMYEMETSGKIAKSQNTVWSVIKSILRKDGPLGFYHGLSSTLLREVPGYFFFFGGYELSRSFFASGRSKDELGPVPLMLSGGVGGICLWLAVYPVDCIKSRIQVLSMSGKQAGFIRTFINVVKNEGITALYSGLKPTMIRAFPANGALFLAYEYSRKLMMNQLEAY
From the text: The 903 bp cDNA coding for the hORC1Wild Type (WT) protein was amplified from the Mega Man Human Transcriptome Library with the forward and reverse primers 5′-[…]-3′ and 5′-[…]-3′, containing the NdeI and HindIII sites, respectively. The amplified cDNA was then cloned in the NdeI/HindIII sites of the pET-21a(+) expression vector. The resulting recombinant plasmid, defined as pET-21a(+)-hORC1, encodes a full-length hORC1 protein with a His6 tag before the termination codon. […]
To test the transport activity of the CAC, 550 μL of proteoliposomes was passed through a Sephadex G-75 column to remove the external substrate. […] Transport rates were measured in 10 min, i.e., within the initial linear range of the time course, at 25 °C. After terminating the transport reaction, the external substrate was removed by chromatography on the Sephadex G-75 column, and the intraliposomal radioactivity was measured. […]
Figure 3 Identification of residue responsible for itaconate inhibition. […] Transport activity of the WT (○), C136A (●), C155A (Δ), C23V/C58V/C89S/C155V/C283S (▲), and C23V/C58V/C89S/C136V/C155V/C283S (□) was measured by adding 0.1 mM [^3H]carnitine after treatment by itaconate at the indicated concentrations. […] Transport activity was measured by adding 0.1 [^3H]ornithine, respectively, as described in Materials and Methods. […]

C=C(CC(=O)O)C(=O)O [itaconate]
IC50 [1]: 11 ± 4.6 mM
IC50 (recombinant ORC (hORC1)): 44 ± 6 mM
